# Patent US20260000655A1, “PHARMACEUTICAL COMPOSITION FOR USE IN PREVENTION OR TREATMENT OF LIFESTYLE-RELATED DISEASE” (priority 2022, published 2026)
# Tests used:
# Smad 3 = details: Non-Patent Literature 3; cited from earlier work
# [1] = tested on: high-fat diet-induced obesity model mice; experiment: Organ weight in mouse; assay type: in vivo; details: HPH-15 100 mg/kg orally once a day 28 days; compared to olive oil
# Protocol: The changes in organ weights when HPH-15 was administered were examined.
# High-fat diet-induced obesity model mice were prepared in the same manner as in Example 7. Then, HPH-15 (10 mg/kg or 100 mg/kg, […]) dissolved in olive oil or metformin (300 mg/kg, […]) was orally administered once a day for 28 days. Olive oil alone was administered as a control. After 28 days of administration of each, the liver, muscle, subcutaneous fat, and epididymis of the high-fat diet-induced obesity model mice were excised and weighed.
# AMPK = experiment: Activation of p-AMPK in mouse tissue (Western blotting); assay type: in vivo
# Protocol: High-fat diet-induced obesity model mice were prepared in the same manner as in Example 7. Then, HPH-15 (10 mg/kg or 100 mg/kg, […]) dissolved in olive oil or metformin (300 mg/kg, […]) was orally administered once a day for 28 days. Olive oil alone was administered as a control. After 28 days of administration of each, equal amounts (50 mg) of tissue pieces were collected from the liver, subcutaneous fat, and muscle tissues of the high-fat diet-induced obesity model mice, transferred to 1.5 mL Eppendorf tubes, and washed twice with PBS. After washing, the tissue pieces were transferred to BIOMASHER II, […] of RIPA buffer was added, and the tissue pieces were homogenized on ice. After homogenization, the tissue pieces were centrifuged (10,000 rpm, 4° C., 5 min) and the supernatant was obtained as a protein solution. The concentration of the proteins thus obtained was corrected based on the protein concentration measured by the BCA method using bicinchoninic acid (BCA), thereby preparing samples for Western blotting. Western blotting was performed in the same manner as in Example 1 described above, and the amount of p-AMPK/AMPK was calculated.
# [2] = Body weight during administration in mouse; assay type: in vivo; details: HPH-15 10 mg/kg or 100 mg/kg orally once a day for 28 days; high-fat diet
# Protocol: (§1) Four-week-old […] mice (CLEA Japan, Inc.) were fed a high-fat diet HFD (CLEA Japan, Inc.) for two months to prepare high-fat diet-induced obesity model mice. Then, HPH-15 (10 mg/kg or 100 mg/kg, […]) dissolved in olive oil (Kenei Pharmaceutical Co., Ltd.) or metformin (300 mg/kg, […]) was orally administered once a day for 28 days. Olive oil alone was administered as a control. Body weight, random blood glucose levels, and fasting blood glucose levels were measured every 7 days using a blood glucose meter Glutest Aqua (Sanwa Kagaku Kenkyusho Co., Ltd.). Fasting blood glucose levels were measured after 12-hour fasting. Note that, during the drug administration period, the mice were fed the high-fat diet HFD. The results of random blood glucose levels (mg/dl) are shown in FIG. 7A, and the results of fasting blood glucose levels (mg/dl) are shown in FIG. 7B.
# [3] = tested on: high-fat diet-induced obesity model mice; experiment: Blood glucose lowering effect in mouse; assay type: in vivo; details: HPH-15 10 mg/kg or 100 mg/kg orally once a day for 28 days, compared with metformin 300 mg/kg
# Protocol: In Example 7, mice were used instead of the cells, which were used up to Example 6, to examine the blood glucose lowering effect of HPH-15.
# as §1
# [4] = tested on: high-fat diet-induced obesity model mice; experiment: H&E staining of mouse tissue; assay type: in vivo
# Protocol: High-fat diet-induced obesity model mice were prepared in the same manner as in Example 7. Note that the high-fat diet-induced obesity model mice develop liver damage and are thus used as a liver disease model. Then, HPH-15 (10 mg/kg or 100 mg/kg, […]) dissolved in olive oil or metformin (300 mg/kg, […]) was orally administered once a day for 28 days. Olive oil alone was administered as a control. After administration of each for 28 days, the liver, epididymis, and muscle of the high-fat diet-induced obesity model mice were stained with H&E and observed using a microscope. The results of H&E staining of the liver are shown in FIG. 12A, the results of H&E staining of the epididymis are shown in FIG. 12B, and the results of H&E staining of the muscle are shown in FIG. 12C.
# [5] = tested on: high-fat diet-induced obesity model mice; experiment: Pyruvic acid loading test in mouse; assay type: in vivo; details: HPH-15 10 mg/kg or 100 mg/kg orally, 28 days; pyruvic acid 2 g/kg intraperitoneally; compared to olive oil
# Protocol: The effect of HPH-15 on the changes in blood glucose levels in the presence of pyruvic acid involving in gluconeogenesis was examined using mice.
# High-fat diet-induced obesity model mice were prepared in the same manner as in Example 7. Then, HPH-15 (10 mg/kg or 100 mg/kg, […]) dissolved in olive oil or metformin (300 mg/kg, […]) was orally administered once a day for 28 days. Olive oil alone was administered as a control. After 28 days of administration of each, pyruvic acid was intraperitoneally administered (2 g/kg) to the high-fat diet-induced obesity model mice, and blood glucose levels (mg/dl) were measured at 0, 15, 30, 60, 90, and 120 minutes after administration using a blood glucose meter Glutest Aqua (Sanwa Kagaku Kenkyusho Co., Ltd.).
# herpes = details: Non-Patent Literature 2; cited from earlier work
# [6] = tested on: liver cell model HepG2 cells; experiment: Neutral fat accumulation (Oil Red O) in presence of glucose; assay type: cell-based, human; details: HPH-15 50 μM vs metformin 2 mM, glucose 100 mM, 24 hours
# Protocol: Many patients with type 2 diabetes have fat accumulation in the visceral organs.
# The liver cell model HepG2 cells used in Example 1 were seeded onto a 24-well plate (1×10^5 cells/well, […] of culture liquid) and cultured overnight. Then, a DMSO solution (1%) containing HPH-15 (final concentration: 50 μM) or metformin (final concentration: 2 mM) was added to the medium, and the cells were further cultured for 24 hours. As a control, only DMSO solution (1%) was added, and the cells were cultured for 24 hours in the same manner. Next, glucose (100 mM) was added to the medium, and the cells were further cultured for 24 hours. Then, the cells were fixed using 4% paraformaldehyde for 10 minutes. The fixed cells were added with an Oil Red O staining solution (Nacalai Tesque, Inc.) and shaken for 15 minutes. After washing with a 60% aqueous isopropanol solution, cell images were observed using a microscope. Further, the amount of neutral fat in the cells was determined by dissolving the stained cells in 100% isopropanol and measuring the absorbance (492 nm).
# [7] = HPH-15 10 or 100 mg/kg orally 28 days
smiles,measurement,setting,value
CC(C)(C)SCCNC(=S)c1cccc(C(=S)NCCSC(C)(C)C)n1 [HPH-15],phosphorylation of Smad 3 induced by TGF-β,Smad 3,reduces the phosphorylation of Smad 3 induced by TGF-β
same,reduction of subcutaneous fat weight,[1],approximately 50%
same,p-AMPK/AMPK in the liver,AMPK; [7],increased
same,p-AMPK/AMPK in the muscle,AMPK; [7],increased
same,p-AMPK/AMPK in the subcutaneous fat,AMPK; [7],increased
same,AMPK activation in the subcutaneous fat as compared to metformin,"AMPK; HPH-15 10 or 100 mg/kg vs metformin 300 mg/kg, orally 28 days",twice or more as compared to metformin
same,changes in body weight during the test period,[2],no significant differences were observed
same,fasting blood glucose levels,[3]; 12-hour fasting,had the effect of lowering
same,random blood glucose levels,[3],had the effect of lowering
same,visible fat in liver tissue and epididymal adipose tissue (H&E),[4]; HPH-15 100 mg/kg orally 28 days,almost no fat was visible
same,"cell area ratio in the epididymal adipose tissue (size of adipocytes, H&E)",[4]; [7],reducing the cell area ratio
same,macrophage infiltration in epididymal adipose tissue (H&E),[4]; [7],does not cause macrophage infiltration
same,percentage of fat in the liver tissue (H&E),"[4]; HPH-15 10 or 100 mg/kg orally 28 days, compared to the control and metformin 300 mg/kg",significantly reducing the percentage of fat in the liver tissue
same,tissue changes or toxicity in the muscle (H&E),"[4]; orally once a day 28 days, FIG. 12C",no tissue changes or toxicity was observed
same,blood glucose levels after pyruvic acid loading,[5],significantly lowered
same,anti-herpes activity,herpes,has anti-herpes activity
same,neutral fat accumulation,[6],had an inhibitory effect on neutral fat accumulation in the presence of high glucose in the same manner as metformin
